From ChEMBL document CHEMBL5113453, “Design, synthesis, and biological evaluation of a new series of pyrazole derivatives: Discovery of potent and selective JNK3 kinase inhibitors” (Bioorg Med Chem, 2022)

Assays:
CAKI-1 = test: Antiproliferative activity against human CAKI-1 cells measured after 48 hrs by SRB assay; type: functional, cell-based
UACC-257 = test: Antiproliferative activity against human UACC-257 cells measured after 48 hrs by SRB assay; type: functional, cell-based
RPMI-8226 [1] = test: Induction of necrosis in human RPMI-8226 cells assessed as LDH release at 6.12 uM; type: functional
Malme-3M = test: Antiproliferative activity against human Malme-3M cells measured after 48 hrs by SRB assay; type: functional, cell-based
HCC 2998 = test: Antiproliferative activity against human HCC 2998 cells measured after 48 hrs by SRB assay; type: functional, cell-based
M14 = test: Antiproliferative activity against human M14 cells measured after 48 hrs by SRB assay; type: functional, cell-based
MDA-MB-231 = test: Antiproliferative activity against human MDA-MB-231 cells measured after 48 hrs by SRB assay; type: functional, cell-based
EKVX = test: Antiproliferative activity against human EKVX cells measured after 48 hrs by SRB assay; type: functional, cell-based
SR = test: Antiproliferative activity against human SR cells measured after 48 hrs by SRB assay; type: functional, cell-based
PC-3 = test: Antiproliferative activity against human PC-3 cells measured after 48 hrs by SRB assay; type: functional, cell-based
NCI-H322M = test: Antiproliferative activity against human NCI-H322M cells measured after 48 hrs by SRB assay; type: functional, cell-based
Hs-578T = test: Antiproliferative activity against human Hs-578T cells measured after 48 hrs by SRB assay; type: functional, cell-based
MCF7 = test: Antiproliferative activity against human MCF7 cells measured after 48 hrs by SRB assay; type: functional, cell-based
TK-10 = test: Antiproliferative activity against human TK-10 cells measured after 48 hrs by SRB assay; type: functional, cell-based
CCRF-CEM = test: Antiproliferative activity against human CCRF-CEM cells measured after 48 hrs by SRB assay; type: functional, cell-based
SNB-75 = test: Antiproliferative activity against human SNB-75 cells measured after 48 hrs by SRB assay; type: functional, cell-based
RPMI-8226 [2] = test: Induction of apoptosis in human RPMI-8226 cells assessed as fold increase in caspase-3/7 activity at 6.12 uM; type: functional
IGROV-1 = test: Antiproliferative activity against human IGROV-1 cells measured after 48 hrs by SRB assay; type: functional, cell-based
OVCAR-3 = test: Antiproliferative activity against human OVCAR-3 cells measured after 48 hrs by SRB assay; type: functional, cell-based
NCI/ADR-RES = test: Antiproliferative activity against human NCI-ADR-RES cells measured after 48 hrs by SRB assay; type: functional, cell-based
SF-539 = test: Antiproliferative activity against human SF-539 cells measured after 48 hrs by SRB assay; type: functional, cell-based
MDA-MB-435 = test: Antiproliferative activity against human MDA-MB-435 cells measured after 48 hrs by SRB assay; type: functional, cell-based
Hep 3B2 = test: Antiproliferative activity against human Hep3B cells measured by MTT assay; type: functional, cell-based
HepG2 = test: Antiproliferative activity against human HepG2 cells measured by MTT assay; type: functional, cell-based
RXF 393 = test: Antiproliferative activity against human RXF 393 cells measured after 48 hrs by SRB assay; type: functional, cell-based
RPMI-8226 [3] = test: Induction of apoptosis in human RPMI-8226 cells assessed as fold increase in caspase-3/7 activity at 0.73 uM; type: functional
KM12 = test: Antiproliferative activity against human KM12 cells measured after 48 hrs by SRB assay; type: functional, cell-based
786-0 = test: Antiproliferative activity against human 786-0 cells measured after 48 hrs by SRB assay; type: functional, cell-based

SMILES: O=C(NCCCNc1cc(-c2cn(-c3ccccc3)nc2-c2cccc(O)c2)ccn1)Nc1cccc(C(F)(F)F)c1
- IC50 (CAKI-1; CAKI-1, 48 h): 1.9 µM
- TGI (CAKI-1; CAKI-1, time 48 hrs): 12.3 µM
- IC50 (UACC-257; UACC-257, 48 h): 4.8 µM
- TGI (UACC-257; UACC-257, time 48 hrs): 10.1 µM
- Activity (RPMI-8226 [1]): 34.5%
- IC50 (Malme-3M; 48 h): 1.54 µM
- TGI (Malme-3M; time 48 hrs): 6.08 µM
- IC50 (HCC 2998; HCC 2998, 48 h): 1.26 µM
- TGI (HCC 2998; HCC 2998, time 48 hrs): 4.34 µM
- IC50 (M14; M14, 48 h): 2.18 µM
- TGI (M14; M14, time 48 hrs): 6.98 µM
- IC50 (MDA-MB-231; MDA-MB-231, 48 h): 2.85 µM
- TGI (MDA-MB-231; MDA-MB-231, time 48 hrs): 7.76 µM
- IC50 (EKVX; 48 h): 3.5 µM
- TGI (EKVX; time 48 hrs): 8.45 µM
- IC50 (SR; 48 h): 1.65 µM
- TGI (SR; time 48 hrs): 12.8 µM
- IC50 (PC-3; PC-3, 48 h): 1.79 µM
- TGI (PC-3; PC-3, time 48 hrs): 11.2 µM
- IC50 (NCI-H322M; 48 h): 4.24 µM
- TGI (NCI-H322M; time 48 hrs): 9.32 µM
- IC50 (Hs-578T; 48 h): 1.34 µM
- TGI (Hs-578T; time 48 hrs): 7.74 µM
- IC50 (MCF7; MCF7, 48 h): 2.73 µM
- TGI (MCF7; MCF7, time 48 hrs): 9.39 µM
- IC50 (TK-10; TK-10, 48 h): 5.75 µM
- TGI (TK-10; TK-10, time 48 hrs): 13.2 µM
- IC50 (CCRF-CEM; 48 h): 1.71 µM
- TGI (CCRF-CEM; time 48 hrs): > 33.3 µM
- IC50 (SNB-75; SNB-75, 48 h): 0.74 µM
- TGI (SNB-75; SNB-75, time 48 hrs): 4.1 µM
- fold change (FC) (RPMI-8226 [2]): 2.83
- IC50 (IGROV-1; IGROV-1, 48 h): 2.83 µM
- TGI (IGROV-1; IGROV-1, time 48 hrs): 7.98 µM
- IC50 (OVCAR-3; OVCAR-3, 48 h): 1.87 µM
- TGI (OVCAR-3; OVCAR-3, time 48 hrs): 9.35 µM
- IC50 (NCI/ADR-RES; 48 h): 4.9 µM
- TGI (NCI/ADR-RES; time 48 hrs): 12.8 µM
- IC50 (SF-539; SF-539, 48 h): 2.78 µM
- TGI (SF-539; SF-539, time 48 hrs): 7.18 µM
- IC50 (MDA-MB-435; MDA-MB-435, 48 h): 3.41 µM
- TGI (MDA-MB-435; MDA-MB-435, time 48 hrs): 7.57 µM
- IC50 (Hep 3B2): 4.9 µM
- IC50 (HepG2): 6.42 µM
- IC50 (RXF 393; RXF 393, 48 h): 1.08 µM
- TGI (RXF 393; RXF 393, time 48 hrs): 4.96 µM
- fold change (FC) (RPMI-8226 [3]): 1.96
- IC50 (KM12; KM12, 48 h): 2.63 µM
- TGI (KM12; KM12, time 48 hrs): 7.39 µM
- IC50 (786-0; 786-0, 48 h): 1.07 µM
- TGI (786-0; 786-0, time 48 hrs): 3.71 µM
